Test results from US20230074200A1 (priority 2021, published 2023).
Several values for one entry are separate records, joined by “and”; a condition that tells them apart may be missing. Identical values can stand only once. Like-named read-outs stand apart in the source and are kept apart here.

Legend:
[1] = system: rats lethally challenged with 110 U/kg BoNT/A (2.5 LD50); details: rat, in vivo
[2] = system: isolated mouse diaphragms poisoned by multiple BoNT serotypes; details: cited from earlier work
BoNT/A-intoxicated mice = details: mouse, in vivo; cited from earlier work
[3] = system: diaphragm motor endplates of BoNT/A intoxicated rats; details: rat, in vivo
[4] = rat, in vivo; for behavioral seizure (%) / gait change (%) / max Racine score / mortality (%) / salivation (%): sc
[5] = rat, in vivo
[6] = rat, in vivo; for behavioral seizure (%) / gait change (%) / max Racine score / mortality (%) / salivation (%): sc; remark: listed apart in the source
[7] = system: rats lethally intoxicated with 2.5 LD50 BoNT/A; details: rat, in vivo
[8] = rat, in vivo, sc, 2 mg/kg

## Nc1ccncc1N [3,4-DAP, 3,4-diaminopyridine]
[1]
  survival rate at the final injection: 100%
  time to reduction of toxic signs compared to vehicle: ≤ 30 min
[1]; 2 mg/kg
  time after cessation of treatment at which toxic signs worsened: approximately 1.5 h
  time of death after the final injection: 2 to 4 h
[2]
  muscle paralysis: reverse muscle paralysis
BoNT/A-intoxicated mice
  respiratory and skeletal muscle weakness: reversed respiratory and skeletal muscle weakness
  respiratory function and survival: improve respiratory function and prolong survival
[3]; 0.98 mg/kg
  mean EPP success rate: 75.4±3.5%
[3]; 1.44 mg/kg
  mean EPP success rate: 60.5±5.3% and 79.7±2.5%
[4]; 2 mg/kg
  physiological indicators of acute neurological toxicity: did not elicit physiological indicators of acute neurological toxicity
  behavioral seizure (%): 0, 0%
  gait change (%): 0%
  max Racine score: 0, 0
  mortality (%): 0%
  salivation (%): 0%
[4]; 8 mg/kg
  physiological indicators of acute neurological toxicity: did not elicit physiological indicators of acute neurological toxicity
  behavioral seizure (%): 0, 0%
  gait change (%): 0%
  max Racine score: 0, 0
  mortality (%): 0%
  salivation (%): 0%
[4]; 1 mg/kg
  behavioral seizure (%): 0, 0%
  gait change (%): 0%
  max Racine score: 0, 0
  mortality (%): 0%
  salivation (%): 0%
[4]; 16 mg/kg
  behavioral seizure (%): 0, 0%
  gait change (%): 50%
  max Racine score: 0, 0
  mortality (%): 0%
  salivation (%): 25%
[5]
  relationship between infusion dose rate and CSS (serum): linearly related to infusion dose
[6]
  behavioral signs of neurological toxicity during infusion: not observed
[6]; 0.36 mg/kg
  behavioral seizure (%): 0, 0%
  gait change (%): 0%
  max Racine score: 0, 0
  mortality (%): 0%
  salivation (%): 0%
[6]; 0.72 mg/kg
  behavioral seizure (%): 0, 0%
  gait change (%): 0%
  max Racine score: 0, 0
  mortality (%): 0%
  salivation (%): 0%
[6]; 1.44 mg/kg
  behavioral seizure (%): 0, 0%
  gait change (%): 0%
  max Racine score: 0, 0
  mortality (%): 0%
  salivation (%): 0%
[7]
  functional toxicity or loss of efficacy throughout the infusion period: no evidence of functional toxicity or loss of efficacy
  symptomatic rebound following cessation of infusion: without symptomatic rebound
  time by which all rats were deceased following cessation of infusion: ≤ 12 h
  time by which toxic signs resolved: ≤ 14 days
  time by which toxic signs stabilized: ≤ 2 days
  time to worsening of toxic signs following cessation of infusion: 3 to 6 h
  toxic signs compared to vehicle: improved
[8]
  VO2: transient increases
  respiratory rate: transient increases
  tidal volume: transient increases
